# Experimental data as given in patent US20090214466A1 (priority 2006, published 2009).
# How the values were obtained:
# Conditions in all cases: human, in vivo
# [1] = test system: symptoms of post-laminectomy syndrome
# [2] = test system: migraine symptoms
# [3] = test system: migraine symptoms; remark: listed apart in the source
substance,measurement,setting,value
infliximab [REMICADE® infliximab],symptoms of post-laminectomy syndrome,[1],reduced symptoms
etanercept [ENBREL® etanercept],frequency and severity of migraine symptoms,[2],Reduction in the frequency and severity of migraine symptoms was reported
botulinum toxin type A [BOTOX® botulinum toxin type A],"frequency, severity, and duration of migraine symptoms",[3],"Reduction in the frequency, severity, and duration of migraine symptoms was reported"
